Where two headings read alike, the source gives them in different places. Blank lines part the entries; values can stand above or below the molecule they belong to. Non-standard residues stand in square brackets, D forms with d. Residues, ends and D or L forms follow the SMILES beside them. Primed or numbered codes have the meaning given here. No end group written: not given here. *: point of attachment. X1 = O=C(O)CN1CCN(CC(=O)O)CC(Cc2ccc(NC(=S)*)cc2)N(CC(=O)O)CC1; PEG27′ = polyethylene glycol linker of 27 —(OCH2CH2)— units; Biotin = O=C1N[C@H]2[C@H](CS[C@H]2CCCCC(=O)*)N1; NOTA = O=C(O)CN1CCN(CC(=O)O)CCN(CC(=O)*)CC1; βAla = NCCC(=O)O
How the values were obtained:
granzyme B [1] = target: T1, granzyme B (Mus musculus, UniProt P04187); type: in vivo, mice; design: from tissue; host or cells: CT26 (BALB/C) and MC38 syngeneic tumours in living mice; granzyme B from infiltrating host lymphocytes
T1 sequence (P04187 21-247): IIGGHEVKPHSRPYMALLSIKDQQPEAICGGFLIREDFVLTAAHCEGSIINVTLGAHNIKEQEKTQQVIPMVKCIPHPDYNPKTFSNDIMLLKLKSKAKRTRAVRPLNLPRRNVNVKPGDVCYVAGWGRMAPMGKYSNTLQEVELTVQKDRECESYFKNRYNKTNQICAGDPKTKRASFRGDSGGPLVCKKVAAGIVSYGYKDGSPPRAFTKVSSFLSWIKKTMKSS
Experimental: For imaging studies, mice were treated with intraperitoneal injection of either vehicle, 200 μg anti-PD-1 murine therapeutic antibody (αPD1), or both 200 μg αPD1 and 100 μg anti-CTLA-4 murine therapeutic antibody (αCTLA-4) on days 3, 6, and 9 following CT-26 tumor inoculation. 1×10^6 BP cells were diluted 1:1 with Matrigel and injected in the right shoulder of female C57BL/6 mice. Once tumors had reached 3-5 mm in diameter, mice were treated with daily oral gavage of vehicle or dabrafenib prepared in aqueous suspension with 0.5% hydroxypropylmethyl cellulose (HPMC) and 0.2% Tween. One day following initiation of BRAF inhibition, mice were additionally randomized to intraperitoneal injection with 200 μg αPD1 as specified. Mice were sacrificed on specified day either for Western blot and immunohistochemistry alone, or following imaging for correlative analysis. Mice were imaged on a GE Triumph PET/CT. Following CT acquisition, PET images were obtained for 15 min in 2 bed positions. Images were constructed using 3D-OSEM (4 iterations, 16 subsets) and corrected for scatter and randoms. The mean standard uptake value (SUVmean) for each tumor was calculated in a 3D region of interest auto-drawn around the tumor using a 30% isocontour threshold. Region of interests were also calculated for left ventricle, liver lung, muscle, and kidney. Images were post-processed using VivoQuant (InviCRO, Boston, Mass.). On day 14 post-inoculation, mice were injected with ˜37 MBq of purified ^68Ga-NOTA-GP intravenously and imaged at 1 h post-injection. […] The mean TBR of treated mice was calculated at 1.69±0.26, whereas the mean TBR of untreated mice was 0.93±0.11, a significant increase (83%, P<0.05) from untreated to treated mice, as shown in FIG. 11. ^68Ga-NOTA-GP uptake was observed across both treated and untreated tumors.

CT26 tumors [2] = assay: Ex vivo tumor to blood ratio by gamma counter in CT26 tumor bearing mice; details: day 14, 1 h post-injection
Experimental: After confirming the ^68Ga-NOTA-GP bound to purified granzyme B and specifically accumulated in target cells, the in vivo tumor accumulation was investigated in CT26 tumor bearing mice using the same model used to generate the Western blot data from Example 2 (see FIG. 1). On day 14 post-inoculation, mice were injected with […] of ^68Ga-NOTA-GP and mice were sacrificed at 1 h following injection. Tumors and blood were collected from 7 mice that were treated with combination therapy (ant-PD-1 and CTLA-4). The tumors were grouped based on size as either responders (mass<[…]) or non-responders (mass≥[…]) The amount of radioactive ^68Ga-NOTA-GP in both the tumor and blood were quantified using a gamma counter and the adjusted based on mass and the ratio of injected dose per gram of tumor to blood (TBR) was plotted for tumors in each group.

[3] = Ex vivo bio-distribution at 1 h and 2 h post-injection; type: in vivo, mice; details: mouse, tumor, iv, 1 mCi, total radioactivity; for tissue uptake at 1 h: 1 h post-injection; for tissue uptake at 2 h: 2 h post-injection
Experimental: (§1) Following injection with ˜1 mCi of ^68Ga-NOTA-GP (see Example 1) via tail-vein mice were sacrificed at either one-hour or two-hour time-points. Mouse urine, blood, tumor, and vital organs were sampled, and radioactivity assessed on a gamma-counter.
(§2) Following imaging, mice were sacrificed and tumoral GZB expression quantified by Western blot. […] Tumoral uptake of treated tumors was measured at 1.15% ID/g at 1 h and 1.02% ID/g at 2 h in comparison to 0.70 and 0.55% ID/g in untreated control tumors, as shown in FIG. 7B.

CT26 tumors [4] = assay: as above; type: in vivo, mice; details: 1 h and 2 h post-injection
Experimental: as §1, §2

granzyme B [5] = target: T1, granzyme B; assay: Response prediction using granzyme B PET imaging across CT26 and MC38 models; type: in vivo, mice; design: from tissue; host or cells: CT26 (BALB/C) and MC38 syngeneic tumours in living mice; granzyme B from infiltrating host lymphocytes; details: CT26 and MC38, all therapies
Text: As a measure of the accuracy of granzyme B PET (i.e., GZP PET) imaging-based response prediction across multiple tumor models and therapies described in Examples 9-11, classifications of uptake using TBR thresholds of 1.27 for CT26 tumors and 1.45 for MC38 tumors were utilized. […] This reflects an overall sensitivity and specificity of 93% and 89% respectively for the ability of ^68Ga-GZP PET to predict immunotherapy response.

CT26 cells = assay: Binding of ^68Ga-NOTA-GP to CT26 cells with or without pre-incubation with granzyme B; type: cell-based; details: 100 μCi/mL, pre-incubated with granzyme B (60 nM) or vehicle, 30 min
Experimental: CT26 cells were plated in 96 well plates and grown to 70% confluency. ^68Ga-NOTA-GP was diluted to 100 μCi/mL in 1% BSA plus RPMI buffer and either pre-incubated with granzyme B (60 nM) or vehicle prior to addition to wells. The peptide was incubated with cells for 30 min prior to washing and elution with 2M NaOH.

granzyme B [6] = target: T1, granzyme B; assay: Binding of ^68Ga-NOTA-GP to purified granzyme B adsorbed to plates vs BSA; design: purchased R&D systems; details: 1 h binding, bound tracer counted by gamma counter, 6 replicates
Experimental: Granzyme B was adsorbed to plates and the plates were blocked with non-fat milk. The ^68Ga-NOTA-GP was permitted to bind for 1 h, the wells washed, and bound ^68Ga-NOTA-GP recovered by incubation with 2N NaOH and counted by gamma counter. […] The bars in FIG. 4 represent the mean of 6 replicates±SD.

tumor = details: mouse, in vivo
Text: Both peptides were designed to test the effects of additional groups on the pharmacokinetics and tumor to background ratios in mice.

human granzyme B [7] = target: T2, human granzyme B (Homo sapiens, UniProt P10144); assay: Immunohistochemistry and immunofluorescence of human melanoma specimens with hGZP; type: binding; details: treated responder melanoma samples, IHC and immunofluorescence
T2 construct: from tissue; host or cells: formalin-fixed paraffin-embedded human melanoma biopsy sections
Experimental: Immunohistochemistry was performed on formalin-fixed paraffin-embedded sections following standard antigen retrieval in citrate buffer. Granzyme B expression was detected with either an anti-Granzyme B antibody (ab5049, Abcam) or a biotinylated and humanized version of GZP (hGZP, see Example 1A). Bound antibody was detected with either HRP-conjugated goat anti-rabbit antibody and reacted with DAB substrate for IHC staining or AlexaFluor 488 goat anti-rabbit or AlexaFluor 594 goat anti-rabbit antibodies (Life Technologies) for immunofluorescent visualization. Bound peptide was detected with either HRP-conjugated streptavidin (Abcam) followed by reaction with DAB substrate or Oregon green conjugated neutravidin (Life Technologies). […] Fluorescence quantification was performed using ImageJ software (National Institutes of Health, Bethesda, Md.).
(§3) A cohort of 9 human melanoma biopsy samples obtained from patients treated with anti-PD-1 checkpoint inhibitors (n=6 nivolumab and n=3 pembrolizumab), which were retrospectively correlated with response based on modified RECIST criteria. […] To quantify the degree and magnitude of difference between treated responders and nonresponders, quantitative fluorescent microscopy was performed. […]

human granzyme B [8] = target: T3, human granzyme B (human, UniProt P10144 21-247); assay: immunohistochemistry and immunofluorescence on human melanoma sections, compared with anti-granzyme B antibody
T3 construct: Endogenous protein in tissue sections, not purified; also called granzyme B in human melanoma tissue
Experimental: Immunohistochemistry was performed on formalin-fixed paraffin-embedded sections following standard antigen retrieval in citrate buffer. Granzyme B expression was detected with either an anti-Granzyme B antibody (ab5049, Abcam) or a biotinylated and humanized version of GZP (hGZP, see Example 1A). Bound antibody was detected with either HRP-conjugated goat anti-rabbit antibody and reacted with DAB substrate for IHC staining or AlexaFluor 488 goat anti-rabbit or AlexaFluor 594 goat anti-rabbit antibodies (Life Technologies) for immunofluorescent visualization.
Bound peptide was detected with either HRP-conjugated streptavidin (Abcam) followed by reaction with DAB substrate or Oregon green conjugated neutravidin (Life Technologies). […] Fluorescence quantification was performed using ImageJ software (National Institutes of Health, Bethesda, Md.).
as §3

[9] = target: Granzyme B (purified, R&D Systems); assay: in vitro granzyme B enzyme activity inhibition (cleavage of BOC-Ala-Ala-Asp-SBZL, absorbance at 405 nm)

T3 sequence (P10144 21-247 limits assumed): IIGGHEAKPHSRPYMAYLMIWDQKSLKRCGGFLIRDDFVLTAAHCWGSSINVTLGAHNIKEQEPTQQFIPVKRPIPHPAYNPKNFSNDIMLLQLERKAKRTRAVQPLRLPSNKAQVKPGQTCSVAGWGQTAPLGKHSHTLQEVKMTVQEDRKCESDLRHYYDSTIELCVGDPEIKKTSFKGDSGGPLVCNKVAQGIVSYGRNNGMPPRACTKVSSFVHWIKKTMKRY
T2 sequence (P10144 21-247): as the sequence (P10144 21-247 limits assumed) above

Molecule: NOTA-beta A-G-G-G-T-E-A-A-A-A-S-S-C-F-I-E-F-D-CHO ({NOTA}-[βAla]GGGTEAAAASSCFIEFD-aldehyde; SMILES CC[C@H](C)[C@H](NC(=O)[C@H](Cc1ccccc1)NC(=O)[C@H](CS)NC(=O)[C@H](CO)NC(=O)[C@H](CO)NC(=O)[C@H](C)NC(=O)[C@H](C)NC(=O)[C@H](C)NC(=O)[C@H](C)NC(=O)[C@H](CCC(=O)O)NC(=O)[C@@H](NC(=O)CNC(=O)CNC(=O)CNC(=O)CCNC(=O)CN1CCN(CC(=O)O)CCN(CC(=O)O)CC1)[C@@H](C)O)C(=O)N[C@@H](CCC(=O)O)C(=O)N[C@@H](Cc1ccccc1)C(=O)N[C@H](C=O)CC(=O)O) [GZPSERP]
aggregation and liver uptake (tumor): significant aggregation and high liver uptake | tumor to background ratios (tumor): much lower tumor to background ratios

Molecule: NOTA-beta A-PEG27-G-G-G-I-E-F-D ({NOTA-βAla-PEG27′}-GGGIEFD) [GZPPEG]
tumor uptake kinetics (tumor): almost identical tumor uptake kinetics to NOTA-GP

Molecule: {Biotin-βAla}-GGGIEPD-aldehyde [hGZP]
binding to granzyme B in human tissue compared with anti-granzyme B antibody (human granzyme B [7]): highly specific binding of hGZP to human granzyme B

B2: NOTA-beta-Ala-Gly-Gly-Ile-Glu-Phe-Asp-CHO (nonradioactive gallium-labeled) (peptide)
peptide: {NOTA}-[βAla]GGIEFD-aldehyde
modifications: also: NOTA complexed with nonradioactive gallium
Ki [9]: 47 nM

Further lines, with some results ahead:

increase of mean TBR from untreated to treated mice (granzyme B [1]; mouse, in vivo): 83% | mean TBR (tumor to left ventricle) by PET, treated mice (granzyme B [1]; mouse, in vivo): 1.69±0.26 | mean TBR (tumor to left ventricle) by PET, untreated mice (granzyme B [1]; mouse, in vivo): 0.93±0.11 | tumor to blood ratio (TBR), injected dose per gram, responders (CT26 tumors [2]; combination therapy (anti-PD-1 and CTLA-4) treated mice, responders (mass<0.8 mg)): 6.06-13.74 | tumor to blood ratio (TBR), injected dose per gram, non-responders (CT26 tumors [2]; combination therapy treated mice, non-responders (mass≥0.8 mg)): 0.95-2.48 | tissue uptake at 1 h ([3]; treated tumors, read-out: tumoral uptake, treated tumors, 1 h): 1.15 %ID/g | tissue uptake at 2 h ([3]; treated tumors, read-out: tumoral uptake, treated tumors, 2 h): 1.02 %ID/g | tissue uptake at 1 h ([3]; untreated control tumors, read-out: tumoral uptake, untreated control tumors, 1 h): 0.7 %ID/g | tissue uptake at 2 h ([3]; untreated control tumors, read-out: tumoral uptake, untreated control tumors, 2 h): 0.55 %ID/g | clearance (CT26 tumors [4]): rapid renal clearance | overall sensitivity to predict immunotherapy response (granzyme B [5]; 25 of 27 responding mice high-uptake): 93% | overall specificity to predict immunotherapy response (granzyme B [5]; 34 of 38 non-responding mice low-uptake): 89%
Molecule: CCC(C)C(NC(=O)CNC(=O)CNC(=O)CNC(=S)Nc1ccc(CC2CN(CC(=O)O)CCN(CC(=O)O)CCN2CC(=O)O)cc1)C(=O)NC(CCC(=O)O)C(=O)NC(Cc1ccccc1)C(=O)NC(C=O)CC(=O)O (stereo not drawn) [^68Ga-NOTA-GP, metal not drawn] (X1-GGGIEFD-aldehyde; configuration not given here)
correlation of TBR with tumoral GZB expression (Western blot) (granzyme B [1]; P<0.001): significant correlation between uptake and GZB expression | binding/uptake in CT26 cells (CT26 cells): binds granzyme B and is taken up specifically by cancer cells | binding to granzyme B compared to control protein (BSA) (granzyme B [6]): significantly (P<0.05) higher binding to granzyme B than to the control protein (BSA)

binding result (human granzyme B [8]): binds
B1: Biotin-beta-Ala-Gly-Gly-Gly-Ile-Glu-Pro-Asp-CHO (peptide)
peptide: Biotin-[βAla]GGGIEPD-aldehyde
SMILES: CC[C@H](C)[C@H](NC(=O)CNC(=O)CNC(=O)CNC(=O)CCNC(=O)CCCC[C@@H]1SC[C@@H]2NC(=O)N[C@@H]21)C(=O)N[C@@H](CCC(=O)O)C(=O)N1CCC[C@H]1C(=O)N[C@H](C=O)CC(=O)O
notes: also called hGZP; biotinylated human granzyme B peptide

— patent US11559590B2, “Granzyme B directed imaging and therapy” (The General Hospital Corporation, priority 2016, dated 2023)
